Values of other authors as cited in patent publication EP1782809A1, “Use of ligands of PPARGamma for inducing foetal lung maturity and the prevention of the respiratory-distress syndrome in premature infants” (Charité-Universitätsmedizin Berlin, priority 2005, dated 2007).
Read-outs that look alike come from different tables or passages of the source.

What was measured:
[1] = not given; remark: listed apart in the source
[2] = rabbits; 20 or 75-fold of the maximal recommended human dosage

Question: With `CCc1ccc(CCOc2ccc(CC3SC(=O)NC3=O)cc2)nc1` (stereo not shown) [pioglitazone] as the molecule, how does the “incidence of elevated transaminases” value (human, in vivo) read?
Answer: similar

Question: Which foetal growth ([1]; late pregnancy, at this dose (20 or 75-fold of human dosage), species not stated in the sentence (rats or rabbits) [26]) does the source give for `CN(CCOc1ccc(CC2SC(=O)NC2=O)cc1)c1ccccn1` (stereo not shown) [rosiglitazone] here?
Answer: can slow down the foetal growth

Question: And the “effect on the implantation or embryogenesis” value ([1]; rats)?
Answer: no effect

Question: And the teratogenic effect ([1]; rats, 20 or 75-fold of the maximal recommended human dosage)?
Answer: no teratogenic effect

Question: What about the teratogenic effect [2] of the same molecule?
Answer: no teratogenic effect

Question: And the “incidence of elevated transaminases” value (controlled clinical studies, compared to the placebo group [19])?
Answer: similar

Question: With `Cc1c(C)c2c(c(C)c1O)CCC(C)(COc1ccc(CC3SC(=O)NC3=O)cc1)O2` (stereo not shown) [troglitazone] as the molecule, how does the “incidence of elevated transaminases” value (human, in vivo) read?
Answer: triplicated
